Where two headings read alike, the source gives them in different places.
How the values were obtained:
[1] = test system: Neonatal foreskin fibroblasts (NFF); assay: Toxicity to normal cells: neonatal foreskin fibroblasts (MTT); format: cell-based; conditions: Homo sapiens, Fibroblast, 120 h, 5 days, mean ± SD, maximum concentration 150 μM
Experimental: (§1) Neonatal foreskin fibroblasts (NFF), a gift from Dr. Peter Parsons (Queensland Institute of Medical Research) were cultured in RPMI supplemented with 10% FBS (Gibco, Australia), penicillin (100 U/ml), streptomycin ([…]), L-glutamine (2 mM) and sodium bicarbonate (1.2 g/L), and cultured at 37° C. in a humidified atmosphere of 5% CO2 for 5 days. Test compounds were added in serial two-fold dilutions from 150 μM in triplicate. These assays were run twice.
(§2) Cell proliferation was assessed after the addition of 20 μl of 3-4,5 dimethylthiazol-2,5-diphenyl tetrazolium bromide (MTT, 5 mg/ml in PBS, Sigma) for 3 hrs at 37° C. according to manufacturer's instructions, by comparing mean absorbance values of test compounds with that of the control.

[2] = test system: various cell lines representative of different cancer indications; assay: Anti-cancer activity, summary over several cell lines; format: cell-based
Experimental: (§3) IC50 values were determined for each cell line. Cells were seeded in 96-well plates at an appropriate cell density as determined from growth kinetics analysis and cultured for 5 days in the absence and presence of the test compounds. Cell proliferation was assessed after the addition of 20 μl of 3-4,5 dimethylthiazol-2,5-diphenyl tetrazolium bromide (MTT, 2.5 mg/ml in PBS, Sigma) for 3-4 hrs at 37° C. according to manufacturer's instructions. IC50 values were calculated from semi-log plots of % of control proliferation on the y-axis against log dose on the x-axis.

RAW 264.7 macrophage = assay: Toxicity to normal cells: RAW 264.7 macrophage (MTT); format: cell-based; conditions: Mus musculus, RAW264.7, 24 hours, single assay, maximum concentration 150 μM
Experimental: (§4) In a single assay, RAW 264.7 cells were seeded in 96-well plates at an appropriate cell density as determined from growth kinetics analysis and cultured for 24 hours in the absence and presence of the test compounds. Test compounds were added in serial two-fold dilutions from 150 μM in triplicate.
as §2

PC-3 = assay: Anti-cancer activity, prostate PC-3 (MTT); format: cell-based; conditions: Homo sapiens, PC-3, 120 h, 5 days, Geometric Mean ± SD (Log-normal Distribution)
Experimental: (§5) The colon adeno-carcinoma cell line HT-29 (HTB-38™) and prostate adenocarcinoma cell line PC-3 (CRL-435™) were cultured in RPMI 1640 medium (Gibco, Cat#21870-076).
(§6) All cultures were supplemented with 10% FBS (Gibco, Cat#10099-158), 5000 U/ml penicillin and 5 mg/ml streptomycin (Gibco, Cat#15070), and cultured at 37° C. in a humidified atmosphere of 5% CO2.
as §3

HPAC = assay: Anti-cancer activity, pancreatic HPAC (MTT); format: cell-based; conditions: Homo sapiens, 120 h, 5 days, Geometric Mean ± SD (Log-normal Distribution)
Experimental: The human pancreatic cancer cell line, HPAC (CRL-2119) was routinely cultured in DMEM/Hams F-12 1:1 (Gibco) and supplemented with 15 mM HEPES, 0.002 mg/ml insulin (Sigma, Cat#I9278), 0.005 mg/ml transferrin (Sigma, Cat#T8158), 40 ng/ml hydrocortisone (Sigma, Cat#H0135) and 10 ng/ml epidermal growth factor (Sigma, Cat#E4269).
as §6, §3

[3] = test system: panel of normal, non-transformed cells; assay: Toxicity to normal cells, overall statement (NFF and RAW 264.7); format: cell-based; conditions: maximum concentration examined 150 μM
Experimental: as §1, §4, §2

MDA-MB-468 = assay: Anti-cancer activity, breast MDA-MB-468 (MTT); format: cell-based; conditions: Homo sapiens, MDA-MB-468, 120 h, 5 days, Geometric Mean ± SD (Log-normal Distribution)
[4] = Free radical scavenging (DPPH); conditions: for EC50: 0.1 mM DPPH in ethanol, 20 minutes, absorbance 517 nm, concentration causing 0.6 change in absorbance, read-out: Free radical scavenging ability EC50; for free radical scavenging activity: DPPH
Experimental: The antioxidant (free radical trapping) activity of test compounds was assessed using the stable free radical compound 2,2-diphenyl-1-picrylhydrazyl (DPPH). A stock solution of DPPH was prepared at a concentration of 0.1 mM in ethanol and mixed for 10 minutes prior to use. Test compounds at a concentration of 100 μM were reacted with DPPH for 20 minutes, after which time the absorbance at 517 nm was determined and the change in absorbance compared to a reagent blank (DPPH with ethanol alone). A dose response curve was produced for those compounds with free radical scavenging activity (ΔAbs>0.3) at 100 μM. The IC50 value was estimated as the concentration of test compound that caused a 0.6 change in absorbance (with 1.2 absorbance units representing total scavenging of the DPPH radical).

LPS-induced NO synthesis = assay: LPS-induced NO (nitrite) production in RAW 264.7 macrophages (Griess Reaction); format: cell-based, mouse; conditions: 10 μM; FIG. 3
Experimental: The mouse macrophage cell line RAW 264.7 was cultured in DMEM supplemented with foetal bovine serum (FBS), 2 mM glutamine and 50 U/ml penicillin/streptomycin (pen/strep). Cells were treated with either test compound (in 0.025% DMSO) or vehicle alone, and added one hour before 50 ng/ml LPS. After incubation for 24 hrs, culture media was collected for PGE2 or TXB2 measurement by ELISA (Cayman Chemical). The effect of test compounds at 10 μM on cell viability was examined using an MTT assay.
Nitrite concentration is a quantitative indicator of NO production (Wang et al. 2002) and was determined by the Griess Reaction (Coligan et al. 1994). Briefly, 100 μL of Griess reagent was added to 50 μL of each supernatant in duplicate in two separate assays, run as for the examination of PGE2 etc. The absorbance at 550 nm was measured, and nitrite concentrations were determined against a standard curve of sodium nitrite.

MM200 = assay: Anti-cancer activity, melanoma MM200 (MTT); format: cell-based; conditions: 120 h, 5 days, Geometric Mean ± SD (Log-normal Distribution)
HT-29 = assay: Anti-cancer activity, colorectal HT-29 (MTT); format: cell-based; conditions: Homo sapiens, HT-29, 120 h, 5 days, Geometric Mean ± SD (Log-normal Distribution)
Experimental: as §5, §6, §3

CP70 = assay: Anti-cancer activity, ovarian CP70 (MTT); format: cell-based; conditions: 5 days, Geometric Mean ± SD (Log-normal Distribution)
Experimental: The ovarian cancer cell line, CP70 was obtained as a gift from Dr. Gil Mor (Yale University) and routinely cultured in DMEM/Hams F-12 1:1 (Gibco, Cat#11320-082) supplemented with 10 mM HEPES (Sigma, Cat#H0887), 1× non essential amino acids (Sigma, Cat#M7145), 5.0 g/L sodium bicarbonate (Sigma, Cat#S5761), and 1 mM sodium pyruvate (Sigma, Cat#S8636).
as §6, §3

NCI-H460 = assay: Anti-cancer activity, lung NCI-H460 (MTT); format: cell-based; conditions: Homo sapiens, NCI-H460, 120 h, 5 days, Geometric Mean ± SD (Log-normal Distribution)
Experimental: The large cell lung cancer cell line NCI-H460 was cultured in RPMI 1640 medium additionally supplemented with 4.5 g/L glucose (Sigma, Cat#G8769), 5.0 g/L sodium pyruvate, 5 g/L sodium bicarbonate and buffered with 10 mM HEPES.
as §6, §3

[5] = read-out: IC50 RAW 264.7 macrophage Unstimulated
[6] = read-out: IC50 RAW 264.7 macrophage with LPS
[7] = read-out: IC50 range against MDA-MB-468 and PC-3 cell lines

| Compound | EC50 [4] | IC50 [2, 7] | IC50 [1] | IC50 (RAW 264.7 macrophage; [5]) | IC50 (RAW 264.7 macrophage; [6]) | IC50 (PC-3) | IC50 (HPAC) | toxicity in the tests performed [3] | IC50 (MDA-MB-468) | IC50 (MM200) | IC50 (NCI-H460) | also measured |
| --- | --- | --- | --- | --- | --- | --- | --- | --- | --- | --- | --- | --- |
| CC1Oc2cc(O)ccc2CC1c1ccc(O)cc1 (stereo not drawn) [Compound 8] |  |  | > 150 µM | > 150 µM | > 150 µM | 78.7 ± 1.26 µM | ≥ 150 µM | no toxicity | 66.3 ± 1.05 µM |  |  | activity against the cell lines tested ([2]; HPAC, MDA-MB-468 and PC-3): little activity |
| CCC1Oc2cc(O)ccc2CC1c1ccc(O)cc1 (stereo not drawn) [Compound 4] |  | 2 to 29 µM | 122.2 ± 1 µM | 28.3 µM | > 150 µM | 16.6 ± 1.08 µM | 103 ± 1.16 µM | mild to moderate toxicity | 7.23 ± 1.07 µM |  |  |  |
| CC1Oc2cc(O)ccc2C=C1c1ccc(O)cc1 (stereo not drawn) [Compound 3] |  |  | 140.3 ± 1.07 µM | 9.3 µM | 102 µM | 12 ± 1.22 µM | 59.3 ± 1.28 µM | mild to moderate toxicity | 5.18 ± 1.09 µM | 69.4 ± 1.22 µM | 12.6 ± 1.1 µM | IC50 ([2]; read-out: IC50 range against CP70, MDA-MB-468, NCI-H460 and PC-3 cell lines): 5 to 13 µM; IC50 (HT-29): 110.1 ± 1.03 µM; IC50 (CP70; 120 h): 8.39 ± 1.13 µM |
| CC(=O)Oc1ccc(C2=Cc3ccc(OC(C)=O)cc3OC2C#N)cc1 (stereo not drawn) [Example 17, 4′,7-Diacetoxy-2-cyano-isoflav-3-ene] |  |  |  |  |  |  |  |  |  |  |  | melting point: 156 to 158 °C |
| CCC1Oc2cc(O)ccc2C=C1c1ccc(O)cc1 (stereo not drawn) [Compound 2] |  | 2 to 29 µM | 97.8 ± 1 µM | 15.2 µM | 90.6 µM | 4.14 ± 1.04 µM | 56 ± 1.03 µM | mild to moderate toxicity | 2.41 ± 1.26 µM | 70.9 ± 1 µM |  |  |
| Oc1ccc(C2=Cc3ccc(O)cc3OC2O)cc1 (stereo not drawn) [Compound 16, 2,4′,7-Trihydroxy-isoflav-3-ene] |  |  |  |  |  |  |  |  |  |  |  | melting point: > 325 °C |
| CC(=O)Oc1ccc(C2=Cc3ccc(OC(C)=O)cc3OC2CNC(=O)OC(C)(C)C)cc1 (stereo not drawn) [Example 23, 4′,7-Diacetoxy-2-(N—(BOC)aminomethyl)-isoflav-3-ene] |  |  |  |  |  |  |  |  |  |  |  | melting point: 52 to 54 °C |
| C=CCC1Oc2cc(O)ccc2C=C1c1ccc(O)cc1 (stereo not drawn) [Compound 1] | 22.8 µM |  | 14.7 ± 3.05 µM | 4.7 µM | 2.2 µM | 3.96 ± 2.02 µM | 5.21 ± 1.88 µM | markedly toxic | 3.25 ± 1.51 µM | 6.37 ± 1.39 µM | 6.72 ± 1.05 µM | IC50 ([2]; read-out: IC50 range against all cell lines tested): 3 to 10 µM; IC50 (HT-29): 9.36 ± 2.88 µM; IC50 (CP70; 120 h): 8.39 ± 2.8 µM |
| CC1Oc2cc(O)ccc2C=C1c1cccc(O)c1 (stereo not drawn) [Compound 6] | 49.6 µM | 14 to 32 µM | 138.6 ± 1.05 µM | > 150 µM | 140 µM | 31.7 ± 1.05 µM | 74.6 ± 1.24 µM | mild to moderate toxicity | 17 ± 1 µM | 137.8 ± 1.16 µM | 114.8 ± 1 µM | IC50 (HT-29): ≥ 150 µM; IC50 (CP70; 120 h): 72.9 ± 1.07 µM |
| Cc1c(O)ccc2c1OC(C)C(c1ccc(O)cc1)=C2 (stereo not drawn) [Compound 5] | 44.8 µM | 2 to 29 µM | > 150 µM | > 150 µM | > 150 µM | 29 ± 1.05 µM | 84.4 ± 1.34 µM | no toxicity | 16.7 ± 1.18 µM |  | 41.1 ± 1 µM |  |

Further lines, with some results ahead:

| EC50 [4] | IC50 [2, 7] | Compound | IC50 [1] | IC50 (RAW 264.7 macrophage; [5]) | IC50 (RAW 264.7 macrophage; [6]) | IC50 (PC-3) | IC50 (HPAC) | toxicity in the tests performed [3] | IC50 (MDA-MB-468) | IC50 (MM200) | IC50 (NCI-H460) | also measured |
| --- | --- | --- | --- | --- | --- | --- | --- | --- | --- | --- | --- | --- |
| > 100 µM |  | Oc1ccc([C@H]2COc3cc(O)ccc3C2)cc1 [Eq, equol, reference compound] |  |  |  |  |  |  |  |  |  | free radical scavenging activity [4]: not active; production of nitrite by macrophages stimulated by LPS (LPS-induced NO synthesis): did not inhibit |
| 24.1 µM |  | CCOC1Oc2cc(O)ccc2C=C1c1ccc(O)cc1 (stereo not drawn) [Compound 14, 2-Ethoxy-4′,7-dihydroxy-isoflav-3-ene] |  |  |  |  |  |  |  |  |  |  |
| 38.4 µM | 14 to 32 µM | Cc1cc(O)cc2c1C=C(c1ccc(O)cc1)C(C)O2 (stereo not drawn) [Compound 7] | 126.6 ± 1.01 µM | 98.8 µM | 115 µM | 31.9 ± 1.47 µM | 60.5 ± 1.21 µM | mild to moderate toxicity | 14.5 ± 1.07 µM | 102 ± 1.27 µM | 51.5 ± 1.03 µM | IC50 (HT-29): ≥ 150 µM; IC50 (CP70; 120 h): ~31 µM; IC50 (CP70): 31.1 ± 1.06 µM |
| 21.8 µM |  | COC1Oc2cc(O)ccc2C=C1c1ccc(O)cc1 (stereo not drawn) [Compound 13, 4′,7-Dihydroxy-2-methoxy-isoflav-3-ene] |  |  |  |  |  |  |  |  |  |  |
| 55.1 µM |  | Oc1ccc(C2=Cc3ccc(O)cc3OC2)cc1 [Compound 37-DHE, reference compound] |  |  |  |  |  |  |  |  |  | free radical scavenging activity [4]: only low activity; production of nitrite by macrophages stimulated by LPS (LPS-induced NO synthesis): did not inhibit |
| 20 µM |  | CCSC1Oc2cc(O)ccc2C=C1c1ccc(O)cc1 (stereo not drawn) [Compound 18, 2-Ethylthio-4′,7-dihydroxy-isoflav-3-ene] |  |  |  |  |  |  |  |  |  |  |
